Data taken from ChEMBL document CHEMBL1201862, “PubChem BioAssay data set” (2004).
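In this assay, cells in 96-well plates receive the compound at five concentrations for 48 hours. Endpoints are linearly interpolated between the surrounding concentrations. GI50 marks 50% less growth.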 Calls of active or inactive are those of the source. No stated cut-off is given here; in the data, active = GI50 up to about 1.1 µM and inactive = higher.

Experiments:
Test in all cases: inhibition of tumour cell growth, NCI panel, 48 h
786-0 = system: 786-0
A498 = system: A498
A549 = system: A549
ACHN = system: ACHN
BT-549 = system: BT-549
CAKI-1 = system: CAKI-1
COLO 205 = system: COLO 205
DU-145 = system: DU-145
EKVX = system: EKVX
HCC 2998 = system: HCC 2998
HCT-116 = system: HCT-116
HCT-15 = system: HCT-15
HOP-62 = system: HOP-62
HOP-92 = system: HOP-92
K562 = system: K562
KM12 = system: KM12
M14 = system: M14
MCF7 = system: MCF7
MDA-MB-231 = system: MDA-MB-231
MDA-MB-435 = system: MDA-MB-435
MDA-N = system: MDA-N
Malme-3M = system: Malme-3M
NCI-H226 = system: NCI-H226
NCI-H23 = system: NCI-H23
NCI-H460 = system: NCI-H460
NCI-H522 = system: NCI-H522
NCI/ADR-RES = system: NCI/ADR-RES
OVCAR-3 = system: OVCAR-3
OVCAR-4 = system: OVCAR-4
OVCAR-5 = system: OVCAR-5
PC-3 = system: PC-3
RPMI-8226 = system: RPMI-8226
SF-268 = system: SF-268
SF-295 = system: SF-295
SK-MEL-28 = system: SK-MEL-28
SK-MEL-2 = system: SK-MEL-2
SK-MEL-5 = system: SK-MEL-5
SK-OV-3 = system: SK-OV-3
SN12C = system: SN12C
SNB-19 = system: SNB-19
SNB-75 = system: SNB-75
T47D = system: T47D
TK-10 = system: TK-10
U-251 = system: U-251
UACC-257 = system: UACC-257
UACC-62 = system: UACC-62
UO-31 = system: UO-31
CCRF-CEM = system: CCRF-CEM
HL-60 = system: HL-60
HT-29 = system: HT-29
Hs-578T = system: Hs-578T
IGROV-1 = system: IGROV-1
LOX IMVI = system: LOX IMVI
MOLT-4 = system: MOLT-4
OVCAR-8 = system: OVCAR-8
RXF 393 = system: RXF 393
SF-539 = system: SF-539
SR = system: SR
SW-620 = system: SW-620

CC(C)(C)c1cc(COc2cc(COc3ccc(-c4c5c(nc6c4CCc4ccc(-c7c8ccccc8nc8ccccc78)cc4-6)-c4cc(-c6c7ccccc7nc7ccccc67)ccc4CC5)cc3)cc(OCc3cc(C(C)(C)C)cc(C(C)(C)C)c3)c2)cc(C(C)(C)C)c1
GI50 (786-0): > 100 µM (inactive)
GI50 (A498): > 100 µM (inactive)
GI50 (A549): > 100 µM (inactive)
GI50 (ACHN): > 100 µM (inactive)
GI50 (BT-549): > 100 µM (inactive)
GI50 (CAKI-1): > 100 µM (inactive)
GI50 (COLO 205): > 100 µM (inactive)
GI50 (DU-145): > 100 µM (inactive)
GI50 (EKVX): > 100 µM (inactive)
GI50 (HCC 2998): 80.5 µM (inactive)
GI50 (HCT-116): > 100 µM (inactive)
GI50 (HCT-15): > 100 µM
GI50 (HOP-62): > 100 µM (inactive)
GI50 (HOP-92): > 100 µM (inactive)
GI50 (K562): > 100 µM (inactive)
GI50 (KM12): > 100 µM (inactive)
GI50 (M14): > 100 µM (inactive)
GI50 (MCF7): > 100 µM (inactive)
GI50 (MDA-MB-231): > 100 µM (inactive)
GI50 (MDA-MB-435): > 100 µM (inactive)
GI50 (MDA-N): > 100 µM (inactive)
GI50 (Malme-3M): 89.3 µM (inactive)
GI50 (NCI-H226): > 100 µM (inactive)
GI50 (NCI-H23): > 100 µM (inactive)
GI50 (NCI-H460): > 100 µM (inactive)
GI50 (NCI-H522): > 100 µM (inactive)
GI50 (NCI/ADR-RES): > 100 µM (inactive)
GI50 (OVCAR-3): > 100 µM (inactive)
GI50 (OVCAR-4): > 100 µM (inactive)
GI50 (OVCAR-5): > 100 µM (inactive)
GI50 (PC-3): > 100 µM (inactive)
GI50 (RPMI-8226): > 100 µM (inactive)
GI50 (SF-268): > 100 µM (inactive)
GI50 (SF-295): > 100 µM (inactive)
GI50 (SK-MEL-28): > 100 µM (inactive)
GI50 (SK-MEL-2): > 100 µM (inactive)
GI50 (SK-MEL-5): > 100 µM (inactive)
GI50 (SK-OV-3): > 100 µM (inactive)
GI50 (SN12C): > 100 µM (inactive)
GI50 (SNB-19): > 100 µM (inactive)
GI50 (SNB-75): > 100 µM (inactive)
GI50 (T47D): > 100 µM (inactive)
GI50 (TK-10): > 100 µM (inactive)
GI50 (U-251): > 100 µM (inactive)
GI50 (UACC-257): > 100 µM (inactive)
GI50 (UACC-62): > 100 µM (inactive)
GI50 (UO-31): > 100 µM (inactive)

NC(=O)C(N)Cc1ccc(O)cn1 (stereo unspecified)
GI50 (786-0): > 100 µM (inactive)
GI50 (A498): > 100 µM (inactive)
GI50 (A549): > 100 µM (inactive)
GI50 (ACHN): > 100 µM (inactive)
GI50 (BT-549): > 100 µM (inactive)
GI50 (CAKI-1): > 100 µM (inactive)
GI50 (CCRF-CEM): > 100 µM (inactive)
GI50 (COLO 205): > 100 µM (inactive)
GI50 (DU-145): > 100 µM (inactive)
GI50 (EKVX): > 100 µM (inactive)
GI50 (HCC 2998): > 100 µM (inactive)
GI50 (HCT-116): > 100 µM (inactive)
GI50 (HCT-15): > 100 µM
GI50 (HL-60): > 100 µM (inactive)
GI50 (HOP-62): > 100 µM (inactive)
GI50 (HOP-92): > 100 µM (inactive)
GI50 (HT-29): > 100 µM (inactive)
GI50 (Hs-578T): > 100 µM (inactive)
GI50 (IGROV-1): > 100 µM (inactive)
GI50 (K562): > 100 µM (inactive)
GI50 (KM12): > 100 µM (inactive)
GI50 (LOX IMVI): > 100 µM (inactive)
GI50 (MCF7): > 100 µM (inactive)
GI50 (MDA-MB-231): > 100 µM (inactive)
GI50 (MDA-MB-435): > 100 µM (inactive)
GI50 (MDA-N): > 100 µM (inactive)
GI50 (MOLT-4): > 100 µM (inactive)
GI50 (Malme-3M): > 100 µM (inactive)
GI50 (NCI-H226): > 100 µM (inactive)
GI50 (NCI-H23): > 100 µM (inactive)
GI50 (NCI-H460): > 100 µM (inactive)
GI50 (NCI-H522): > 100 µM (inactive)
GI50 (NCI/ADR-RES): > 100 µM (inactive)
GI50 (OVCAR-3): > 100 µM (inactive)
GI50 (OVCAR-4): > 100 µM (inactive)
GI50 (OVCAR-5): > 100 µM (inactive)
GI50 (OVCAR-8): > 100 µM (inactive)
GI50 (PC-3): > 100 µM (inactive)
GI50 (RPMI-8226): > 100 µM (inactive)
GI50 (RXF 393): > 100 µM (inactive)
GI50 (SF-268): > 100 µM (inactive)
GI50 (SF-295): > 100 µM (inactive)
GI50 (SF-539): > 100 µM (inactive)
GI50 (SK-MEL-28): > 100 µM (inactive)
GI50 (SK-MEL-5): > 100 µM (inactive)
GI50 (SN12C): > 100 µM (inactive)
GI50 (SNB-19): > 100 µM (inactive)
GI50 (SNB-75): > 100 µM (inactive)
GI50 (SR): > 100 µM (inactive)
GI50 (SW-620): > 100 µM (inactive)
GI50 (TK-10): > 100 µM (inactive)
GI50 (U-251): > 100 µM (inactive)
GI50 (UACC-257): > 100 µM (inactive)
GI50 (UO-31): > 100 µM (inactive)
